The text below walks through data of publication PMC10699586 (Journal of molecular biology, 2023).

This experiment concerns the target T1, dysferlin C2A domain (dysf C2A) (Homo sapiens, UniProt O75923).
T1 sequence (O75923 1-129): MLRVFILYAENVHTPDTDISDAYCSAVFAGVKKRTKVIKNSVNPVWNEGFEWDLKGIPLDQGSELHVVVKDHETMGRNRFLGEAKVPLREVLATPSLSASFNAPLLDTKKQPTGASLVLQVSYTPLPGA
Put plainly: […]-TROSY NMR titration, single-site fast-exchange fit. In kind it is binding.

SMILES strings stand for the structures. Structures can show the parent of a compound that is named as a salt.

For `O=P(O)(O)O[C@@H]1[C@H](O)[C@H](O)[C@@H](OP(=O)(O)O)[C@H](OP(=O)(O)O)[C@H]1O` [IP3, D-myo-Inositol 1,4,5-tris-phosphate trisodium salt], the Kd (usually the free concentration of one partner at which half of the binding sites on the other are occupied at equilibrium, for simple one-to-one binding) is 12 to 15 µM.
